ChEMBL document CHEMBL4049384, “Synthesis and evaluation of an injectable everolimus prodrug” (Bioorg Med Chem Lett, 2017)
≈ marks a conversion by molar mass, not a printed value.

Legend:
[1] = tested on: MDA-MB-435; experiment: Antiproliferative activity against human MDA-MB-435 cells after 48 hrs by MTT assay; type: functional, cell-based; conditions: MDA-MB-435, 48 h
[2] = tested on: OS-RC-2; experiment: Antitumor activity against human OS-RC2 cells xenografted in nude mouse assessed as reduction in tumor volume at 6 mg/kg administered three times a week through oral gavage measured on day 8 relative to control; type: functional
[3] = tested on: OS-RC-2; experiment: Antitumor activity against human OS-RC2 cells xenografted in nude mouse assessed as reduction in tumor volume at 6 mg/kg administered three times a week through oral gavage measured on day 29 relative to control; type: functional
[4] = tested on: HepG2; experiment: Antiproliferative activity against human HepG2 cells after 48 hrs by MTT assay; type: functional, cell-based; conditions: HepG2, 48 h
[5] = tested on: OS-RC-2; experiment: Antitumor activity against human OS-RC2 cells xenografted in nude mouse assessed as reduction in tumor volume at 6 mg/kg administered three times a week through oral gavage measured on day 32 relative to control; type: functional
[6] = tested on: OS-RC-2; experiment: Antitumor activity against human OS-RC2 cells xenografted in nude mouse assessed as reduction in tumor volume at 6 mg/kg administered three times a week through oral gavage measured on day 5 relative to control; type: functional
[7] = tested on: OS-RC-2; experiment: Antitumor activity against human OS-RC2 cells xenografted in nude mouse assessed as reduction in tumor volume at 6 mg/kg administered three times a week through oral gavage measured on day 12 relative to control; type: functional
[8] = tested on: Mus musculus; experiment: Toxicity in nude mouse xenografted with human OS-RC-2 cells assessed as body weight at 6 mg/kg administered three times a week through oral gavage measured on day 1 (reference value: 20.4 +/- 0.33 g); type: organism-based; conditions: in vivo
[9] = tested on: Mus musculus; experiment: Toxicity in nude mouse xenografted with human OS-RC2 cells assessed as body weight loss at 6 mg/kg administered three times a week through oral gavage and measured on Day 29 (reference value: 31.2 %); type: organism-based; conditions: in vivo
[10] = tested on: Mus musculus; experiment: Toxicity in nude mouse xenografted with human OS-RC2 cells assessed as body weight loss at 6 mg/kg administered three times a week through oral gavage and measured on Day 8 (reference value: 8.5 %); type: organism-based; conditions: in vivo
[11] = Drug uptake in Sprague-Dawley rat blood at 10 mg/kg, po after 3 hrs by HPLC method; type: ADME, organism-based; conditions: read-out: Drug uptake
[12] = Drug uptake in Sprague-Dawley rat blood at 10 mg/kg, po after 1.5 hrs by HPLC method; type: ADME, organism-based; conditions: read-out: Drug uptake
[13] = tested on: NCI-H460; experiment: Antiproliferative activity against human NCI-H460 cells after 48 hrs by MTT assay; type: functional, cell-based; conditions: NCI-H460, 48 h
[14] = tested on: OS-RC-2; experiment: Antitumor activity against human OS-RC2 cells xenografted in nude mouse assessed as reduction in tumor volume at 6 mg/kg administered three times a week through oral gavage measured on day 22 relative to control; type: functional
[15] = Drug uptake in Sprague-Dawley rat blood at 10 mg/kg, po after 24 hrs by HPLC method; type: ADME, organism-based; conditions: read-out: Drug uptake
[16] = Drug uptake in Sprague-Dawley rat blood at 10 mg/kg, po after 0.25 hrs by HPLC method; type: ADME, organism-based; conditions: read-out: Drug uptake
[17] = Drug uptake in Sprague-Dawley rat blood at 10 mg/kg, po after 4 hrs by HPLC method; type: ADME, organism-based; conditions: read-out: Drug uptake
[18] = tested on: Mus musculus; experiment: Toxicity in nude mouse xenografted with human OS-RC2 cells assessed as body weight loss at 6 mg/kg administered three times a week through oral gavage and measured on day 15 (reference value: 20.2 %); type: organism-based; conditions: in vivo
[19] = tested on: OS-RC-2; experiment: Antitumor activity against human OS-RC2 cells xenografted in nude mouse assessed as reduction in tumor volume at 6 mg/kg administered three times a week through oral gavage measured on day 19 relative to control; type: functional
[20] = Drug uptake in Sprague-Dawley rat blood at 10 mg/kg, po after 2 hrs by HPLC method; type: ADME, organism-based; conditions: read-out: Drug uptake
[21] = tested on: Mus musculus; experiment: Toxicity in nude mouse xenografted with human OS-RC-2 cells assessed as death at 6 mg/kg administered three times a week through oral gavage after 32 days; type: organism-based; conditions: in vivo, 768 h
[22] = tested on: Mus musculus; experiment: Toxicity in nude mouse xenografted with human OS-RC-2 cells assessed as body weight loss at 6 mg/kg administered three times a week through oral gavage measured after 32 days (reference value: 33%); type: organism-based; conditions: in vivo, 768 h
[23] = tested on: Mus musculus; experiment: Toxicity in nude mouse xenografted with human OS-RC-2 cells assessed as body weight loss at 6 mg/kg administered three times a week through oral gavage measured on day 5 (reference value: 1.9%); type: organism-based; conditions: in vivo
[24] = Drug uptake in Sprague-Dawley rat blood at 10 mg/kg, po after 6 hrs by HPLC method; type: ADME, organism-based; conditions: read-out: Drug uptake
[25] = tested on: OS-RC-2; experiment: Antitumor activity against human OS-RC2 cells xenografted in nude mouse assessed as tumor weight at 6 mg/kg administered three times a week through oral gavage measured after 32 days (reference value: 0.68 +/- 0.06 g); type: functional
[26] = Drug uptake in Sprague-Dawley rat blood at 10 mg/kg, po after 8 hrs by HPLC method; type: ADME, organism-based; conditions: read-out: Drug uptake
[27] = Solubility of the compound in water; type: physicochemical
[28] = tested on: Mus musculus; experiment: Toxicity in nude mouse xenografted with human OS-RC2 cells assessed as body weight loss at 6 mg/kg administered three times a week through oral gavage and measured on Day 19 (reference value: 23.1 %); type: organism-based; conditions: in vivo
[29] = Tmax in Sprague-Dawley rat at 10 mg/kg, po; type: ADME, organism-based; conditions: in vivo
[30] = tested on: Mus musculus; experiment: Toxicity in nude mouse xenografted with human OS-RC2 cells assessed as body weight loss at 6 mg/kg administered three times a week through oral gavage and measured on Day 26 (reference value: 28.2 %); type: organism-based; conditions: in vivo
[31] = tested on: Mus musculus; experiment: Toxicity in nude mouse xenografted with human OS-RC2 cells assessed as body weight loss at 6 mg/kg administered three times a week through oral gavage and measured on Day 12 (reference value: 15 %); type: organism-based; conditions: in vivo
[32] = tested on: OS-RC-2; experiment: Antitumor activity against human OS-RC2 cells xenografted in nude mouse assessed as reduction in tumor volume at 6 mg/kg administered three times a week through oral gavage measured on day 15 relative to control; type: functional
[33] = Cmax in Sprague-Dawley rat at 10 mg/kg, po; type: ADME, organism-based; parameters: dose 10 mg/kg, route oral; conditions: in vivo
[34] = tested on: OS-RC-2; experiment: Antitumor activity against human OS-RC2 cells xenografted in nude mouse assessed as reduction in tumor volume at 6 mg/kg administered three times a week through oral gavage measured on day 26 relative to control; type: functional
[35] = Drug uptake in Sprague-Dawley rat blood at 10 mg/kg, po after 1 hr by HPLC method; type: ADME, organism-based; conditions: read-out: Drug uptake
[36] = tested on: OS-RC-2; experiment: Antitumor activity against human OS-RC2 cells xenografted in nude mouse assessed as tumor growth inhibition at 6 mg/kg administered three times a week through oral gavage measured after 32 days relative to control; type: functional; conditions: OS-RC-2, po, 768 h, read-out: TGI
[37] = Drug uptake in Sprague-Dawley rat blood at 10 mg/kg, po after 0.5 hrs by HPLC method; type: ADME, organism-based; conditions: read-out: Drug uptake
[38] = tested on: OS-RC-2; experiment: Antitumor activity against human OS-RC2 cells xenografted in nude mouse assessed as tumor volume at 6 mg/kg administered three times a week through oral gavage measured on day 1 (reference value: 167.51 +/- 17.09 mm3); type: functional
[39] = Half life in Sprague-Dawley rat at 10 mg/kg, po; type: ADME, organism-based; conditions: in vivo
[40] = tested on: DU-145; experiment: Antiproliferative activity against human DU145 cells after 48 hrs by MTT assay; type: functional, cell-based; conditions: DU-145, 48 h
[41] = AUC (0 to t) in Sprague-Dawley rat at 10 mg/kg, po; type: ADME, organism-based; conditions: in vivo
[42] = tested on: PC-3; experiment: Antiproliferative activity against human PC3 cells after 48 hrs by MTT assay; type: functional, cell-based; conditions: PC-3, 48 h
[43] = AUC (0 to infinity) in Sprague-Dawley rat at 10 mg/kg, po; type: ADME, organism-based; parameters: dose 10 mg/kg, route oral, time infinity; conditions: in vivo
[44] = tested on: Mus musculus; experiment: Toxicity in nude mouse xenografted with human OS-RC2 cells assessed as body weight loss at 6 mg/kg administered three times a week through oral gavage and measured on Day 22 (reference value: 23.1 %); type: organism-based; conditions: in vivo

CO[C@H]1C[C@@H]2CC[C@@H](C)[C@@](O)(O2)C(=O)C(=O)N2CCCC[C@H]2C(=O)O[C@H]([C@H](C)C[C@@H]2CC[C@@H](OCCO)[C@H](OC)C2)CC(=O)[C@H](C)/C=C(\C)[C@@H](O)[C@@H](OC)C(=O)[C@H](C)C[C@H](C)\C=C/C=C/C=C/1C
IC50 [1]: 62.5 µM
T/C [2]: 76%
T/C [3]: 0.72%
IC50 [4]: 52.3 µM
T/C [5]: 0.77%
T/C [6]: 79%
T/C [7]: 0.72%
Activity [8]: 20.94 g
Activity [9]: 10.5%
Activity [10]: 3.1%
concentration at 3 h [11]: 0.0643 µg/mL
concentration at 1.5 h [12]: 0.0904 µg/mL
IC50 [13]: 99.8 µM
T/C [14]: 0.69%
concentration at 24 h [15]: 0.00228 µg/mL
concentration at 0.25 h [16]: 0.0174 µg/mL
concentration at 4 h [17]: 0.0614 µg/mL
Activity [18]: 8.7%
T/C [19]: 0.71%
concentration at 2 h [20]: 0.0697 µg/mL
Activity [21]: Non-Toxic
Activity [22]: 11.7%
Activity [23]: 2.7%
concentration at 6 h [24]: 0.0324 µg/mL
Activity [25]: 0.4 g
concentration at 8 h [26]: 0.0163 µg/mL
solubility [27]: 1 µg/mL (≈ 1.04 µM)
Activity [28]: 9.7%
Tmax [29]: 1.91 h
Activity [30]: 9.1%
Activity [31]: 8.2%
T/C [32]: 0.66%
Cmax [33]: 0.126 µg/mL
T/C [34]: 0.71%
concentration at 1 h [35]: 0.0992 µg/mL
inhibition in vivo at 6 mg/kg [36]: 41.1%
concentration at 0.5 h [37]: 0.1 µg/mL
Activity [38]: 167.38 mm3
half-life [39]: 2.2 h
IC50 [40]: 57.3 µM
AUC(0-t) [41]: 0.454 µg·h/mL
IC50 [42]: 30.2 µM
AUC(0-inf) [43]: 0.454 µg·h/mL
Activity [44]: 9.7%
